Data reported in patent publication US12295937B2, “Psychoactive medicines and their use for treating psychiatric and neurological conditions and disorders” (Transcend Therapeutics, Inc., priority 2021, dated 2025).
pIC50: −log10 of the molar value. Where two headings read alike, the source gives them in different places. Marks after values point to notes of the source that are not given here.

How the values were obtained:
DAT = DAT (Rattus norvegicus, UniProt P23977); assay: [3H]DA uptake inhibition in rat brain synaptosomes; settings: read-out: Reuptake inhibition: IC50; rat brain synaptosomes
5HT2C receptor = molecular target: T1, 5HT2C receptor (Homo sapiens, UniProt P28335); assay: GPCRmax screen, agonist mode, 5HT2C; type: cell-based; settings: 1 or 10 mM
T1 construct: host or cells: PathHunter cell lines

[1] = Cued fear conditioning / extinction training and recall; type: in vivo, mouse
Method: Methods: Cued fear conditioning was performed in C57BL/6J mice. On day 1, animals were placed in the chambers and presented with a training session (CS-US pairing). The training consisted of a 2-minute habituation followed by a 30-second, 80 dB tone; during the last 2 seconds of the tone animals received a 1 mA foot shock. This US-CS procedure occurred once for a total of one paired presentation of tone and shock. Freezing behavior (immobility) was recorded in 5-10-see intervals during the session. Percent baseline freezing behavior was determined in the 2-minute habituation period. On day 3, animals were placed in context B, in which tactile and odor cues differed from context A. Following a 2 minute acclimation period animals received 4×30 sec presentations of the CS (tone) in the absence of the US (footshock), with a 45 sec interval between presentations. Freezing was recorded in 5-10-sec intervals to measure baseline freezing response to the altered context, and freezing response to each tone cuc presentation. […] On day 4 (Post-Extinction Testing in Drug-Free State), animals were placed in Context B. Following a 2 min acclimation period, animals received 4×30 sec extinction tone duration presentations of the CS (tone) in the absence of the US (footshock), with a 45 sec interval between presentations. Freezing was recorded in 5-10-sec intervals to measure baseline freezing response to the altered context, and freezing response to each tone cue presentation.

[2] = cited from earlier work
serotonin transporter = serotonin transporter (Homo sapiens, UniProt P31645); settings: cited from earlier work
[3] = Methylone case series, Cohorts 1 and 2 (CGI-S/CGI-I, safety); type: in vivo, human
Method: CGI-S scale was also evaluated in a subset of patients from Cohort 2 post-treatment. Cohort 2 was evaluated for any observed or reported safety events following a single dosing session. Clinical Global Improvement Scale • Clinical Global Impressions (CGI) scale includes 2 components: CGI-S (“severity”) and CGI-I (“improvement”).
Only sessions that included methylone dosing were counted as dosing sessions.
Single sessions occurred for 8 of the 28 cases with no booster in two of these cases. In the remainder of the cases, multiple sessions occurred, and booster doses were used in all or some of the remaining patients ([…]) with multiple booster doses used in some or all of the sessions in 15 patients.

168 GPCRs [4] = molecular target: T2, 168 GPCRs (Homo sapiens, UniProt P49238); assay: β-arrestin GPCR screen (PathHunter / GPCRmax), agonist mode; type: cell-based; settings: CX3CR1, 1 uM
T2 construct: host or cells: PathHunter cell lines
Method: (§1) For agonist determination, cells were incubated with sample to induce response. […] Vehicle concentration was 1%.

168 GPCRs [5] = molecular target: T3, 168 GPCRs (Homo sapiens, UniProt P32249); assay: as above; type: cell-based; settings: EBI2, 1 uM
T3 construct: host or cells: PathHunter cell lines
Method: as §1

168 GPCRs [6] = assay: as above; type: cell-based; settings: CCR, 10 uM
Method: as §1

168 GPCRs [7] = molecular target: T4, 168 GPCRs (Homo sapiens, UniProt P32239); assay: as above; type: cell-based; settings: CCKBR, 1 uM
T4 construct: host or cells: PathHunter cell lines
Method: as §1

168 GPCRs [8] = molecular target: T5, 168 GPCRs (Homo sapiens, UniProt Q99788); assay: as above; type: cell-based; settings: CMKLR1, 1 uM
T5 construct: host or cells: PathHunter cell lines
Method: as §1

168 GPCRs [9] = molecular target: T6, 168 GPCRs (Homo sapiens, UniProt P34998); assay: as above; type: cell-based; settings: CRHR1, 1 uM
T6 construct: host or cells: PathHunter cell lines
Method: as §1

Open field test (OFT) = type: in vivo, rat; settings: 5 or 15 mg/kg IP, 30 minutes before testing
Method: Method: Consecutive beam breaks and/or video-tracking of time spent in the center versus periphery of the open field are measured. Also measured are parameters such as distance traveled and ambulatory activity (horizontal and vertical) for the duration of the test session.
The open field test (OFT) capitalizes on a rodent's innate fear of open spaces to assess anxiety-like behavior. More time spent in the center of an open field reflects an anxiolytic (anti-anxiety) effect.
Locomotor activity was also measured in the OFT.
To investigate whether MBDB has an anti-anxiety (anxiolytic) effect, rats were dosed with MBDB (0.5-30 mg/kg, IP) or vehicle (saline) and 30-minutes later were tested in the open field for 30 minutes. This anxiety test capitalizes on a rodents' innate fear of wide-open spaces and propensity to hug the walls when placed into the open field. Therefore, a drug that increases the time spent in the center of the open field has anxiolytic activity and predicts utility for treating anxiety in humans.

5HT2A receptor = molecular target: T7, 5HT2A receptor (Homo sapiens, UniProt P28223); assay: GPCRmax screen, agonist mode, 5HT2A; type: cell-based; settings: 1 or 10 mM
T7 construct: host or cells: PathHunter cell lines
T7 sequence (P28223 whole entry): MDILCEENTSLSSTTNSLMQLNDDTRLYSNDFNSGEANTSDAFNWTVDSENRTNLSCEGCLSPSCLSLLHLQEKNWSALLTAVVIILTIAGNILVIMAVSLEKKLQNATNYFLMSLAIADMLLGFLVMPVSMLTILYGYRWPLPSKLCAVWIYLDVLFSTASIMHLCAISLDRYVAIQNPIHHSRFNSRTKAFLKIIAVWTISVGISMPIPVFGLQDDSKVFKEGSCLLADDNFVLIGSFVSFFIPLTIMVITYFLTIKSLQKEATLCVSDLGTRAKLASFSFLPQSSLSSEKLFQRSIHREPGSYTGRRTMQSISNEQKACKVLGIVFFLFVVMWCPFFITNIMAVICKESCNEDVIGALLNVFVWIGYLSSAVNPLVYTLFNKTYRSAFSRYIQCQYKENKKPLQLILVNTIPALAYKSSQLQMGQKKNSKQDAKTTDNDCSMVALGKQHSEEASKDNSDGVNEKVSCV

T4 sequence (P32239 whole entry): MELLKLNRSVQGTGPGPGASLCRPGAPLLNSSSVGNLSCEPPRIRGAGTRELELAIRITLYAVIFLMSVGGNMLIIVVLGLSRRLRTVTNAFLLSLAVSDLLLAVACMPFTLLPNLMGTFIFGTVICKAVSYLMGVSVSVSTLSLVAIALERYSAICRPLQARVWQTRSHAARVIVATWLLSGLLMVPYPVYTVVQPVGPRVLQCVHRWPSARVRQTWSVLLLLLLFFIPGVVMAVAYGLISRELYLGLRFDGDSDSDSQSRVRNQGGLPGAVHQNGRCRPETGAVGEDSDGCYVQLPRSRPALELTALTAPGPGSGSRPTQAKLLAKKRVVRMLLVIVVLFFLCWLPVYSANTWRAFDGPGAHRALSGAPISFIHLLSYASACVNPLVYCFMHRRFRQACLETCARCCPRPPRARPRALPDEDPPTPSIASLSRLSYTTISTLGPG
T2 sequence (P49238 whole entry): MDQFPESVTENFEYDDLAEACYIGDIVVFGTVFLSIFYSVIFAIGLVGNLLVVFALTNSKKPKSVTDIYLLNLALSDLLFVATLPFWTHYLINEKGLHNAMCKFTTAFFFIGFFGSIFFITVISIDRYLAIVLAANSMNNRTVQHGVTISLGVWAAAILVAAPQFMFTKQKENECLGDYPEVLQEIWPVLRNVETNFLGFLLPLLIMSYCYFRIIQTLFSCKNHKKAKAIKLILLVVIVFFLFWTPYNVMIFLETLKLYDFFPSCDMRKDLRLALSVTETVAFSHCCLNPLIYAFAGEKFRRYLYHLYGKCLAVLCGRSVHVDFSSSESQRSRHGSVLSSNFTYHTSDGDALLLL
T1 sequence (P28335 33-458): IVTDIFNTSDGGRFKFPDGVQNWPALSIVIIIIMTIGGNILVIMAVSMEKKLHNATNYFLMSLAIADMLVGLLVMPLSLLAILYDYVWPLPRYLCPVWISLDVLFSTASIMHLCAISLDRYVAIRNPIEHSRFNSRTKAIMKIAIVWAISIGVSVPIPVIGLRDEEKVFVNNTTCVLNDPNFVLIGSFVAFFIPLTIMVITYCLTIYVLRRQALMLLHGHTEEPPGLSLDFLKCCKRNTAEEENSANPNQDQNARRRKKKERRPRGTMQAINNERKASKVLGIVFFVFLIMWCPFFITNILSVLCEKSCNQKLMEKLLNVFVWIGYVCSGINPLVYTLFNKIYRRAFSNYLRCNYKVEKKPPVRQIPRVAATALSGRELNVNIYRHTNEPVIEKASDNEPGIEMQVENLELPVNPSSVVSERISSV
Sequence of DAT (P23977 whole entry): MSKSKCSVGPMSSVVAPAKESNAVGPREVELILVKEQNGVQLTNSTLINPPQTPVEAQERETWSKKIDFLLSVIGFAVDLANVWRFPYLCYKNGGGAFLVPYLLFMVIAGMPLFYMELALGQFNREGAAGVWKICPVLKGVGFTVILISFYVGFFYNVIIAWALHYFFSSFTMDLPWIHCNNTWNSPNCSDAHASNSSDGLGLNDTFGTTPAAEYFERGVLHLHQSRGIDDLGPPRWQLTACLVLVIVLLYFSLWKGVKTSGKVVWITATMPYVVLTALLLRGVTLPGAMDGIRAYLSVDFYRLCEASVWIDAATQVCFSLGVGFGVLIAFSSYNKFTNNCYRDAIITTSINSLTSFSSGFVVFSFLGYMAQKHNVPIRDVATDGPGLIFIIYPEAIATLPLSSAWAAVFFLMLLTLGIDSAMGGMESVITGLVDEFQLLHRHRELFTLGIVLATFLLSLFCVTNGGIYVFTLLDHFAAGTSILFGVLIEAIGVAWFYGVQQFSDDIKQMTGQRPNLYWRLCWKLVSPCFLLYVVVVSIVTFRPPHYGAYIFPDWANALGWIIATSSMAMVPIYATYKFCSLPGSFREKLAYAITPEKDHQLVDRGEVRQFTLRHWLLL
T6 sequence (P34998 24-415): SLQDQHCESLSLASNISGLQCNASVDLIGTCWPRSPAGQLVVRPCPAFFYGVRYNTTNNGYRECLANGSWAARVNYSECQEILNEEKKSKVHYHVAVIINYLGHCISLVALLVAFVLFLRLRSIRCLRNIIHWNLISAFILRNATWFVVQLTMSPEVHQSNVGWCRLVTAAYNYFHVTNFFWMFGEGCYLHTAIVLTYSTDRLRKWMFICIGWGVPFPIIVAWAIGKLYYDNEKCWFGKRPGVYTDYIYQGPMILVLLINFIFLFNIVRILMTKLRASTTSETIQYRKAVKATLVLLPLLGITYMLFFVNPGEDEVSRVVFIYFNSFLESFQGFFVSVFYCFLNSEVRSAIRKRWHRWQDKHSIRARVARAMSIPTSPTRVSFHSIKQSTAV
T5 sequence (Q99788 whole entry): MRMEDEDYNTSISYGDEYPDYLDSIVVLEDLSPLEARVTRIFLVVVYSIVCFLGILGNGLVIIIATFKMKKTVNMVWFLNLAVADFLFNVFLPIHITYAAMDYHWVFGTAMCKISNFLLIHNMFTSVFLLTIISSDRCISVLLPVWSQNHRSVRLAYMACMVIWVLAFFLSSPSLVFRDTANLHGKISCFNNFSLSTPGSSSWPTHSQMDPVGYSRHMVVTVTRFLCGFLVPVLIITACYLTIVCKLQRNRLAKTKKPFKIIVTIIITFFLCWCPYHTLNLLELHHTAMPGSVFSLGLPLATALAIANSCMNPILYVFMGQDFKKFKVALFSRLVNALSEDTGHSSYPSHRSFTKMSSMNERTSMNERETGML
Sequence of serotonin transporter (P31645 whole entry): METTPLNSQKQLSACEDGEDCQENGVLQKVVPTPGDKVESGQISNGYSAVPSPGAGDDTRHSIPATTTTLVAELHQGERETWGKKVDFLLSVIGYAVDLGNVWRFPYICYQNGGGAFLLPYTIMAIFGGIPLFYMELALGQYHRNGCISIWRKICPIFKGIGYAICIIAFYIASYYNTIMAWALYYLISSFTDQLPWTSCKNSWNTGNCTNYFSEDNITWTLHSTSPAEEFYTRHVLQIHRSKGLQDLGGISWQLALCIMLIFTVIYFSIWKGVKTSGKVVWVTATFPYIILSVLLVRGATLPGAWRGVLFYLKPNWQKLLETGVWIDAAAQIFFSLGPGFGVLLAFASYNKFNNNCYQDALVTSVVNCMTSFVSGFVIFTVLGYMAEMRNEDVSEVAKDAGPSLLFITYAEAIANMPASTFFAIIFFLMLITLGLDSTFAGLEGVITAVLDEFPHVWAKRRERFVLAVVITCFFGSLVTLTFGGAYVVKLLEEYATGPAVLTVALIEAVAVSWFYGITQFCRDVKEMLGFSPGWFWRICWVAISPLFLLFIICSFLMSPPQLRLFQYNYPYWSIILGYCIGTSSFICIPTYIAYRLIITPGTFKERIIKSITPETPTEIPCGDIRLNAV
T3 sequence (P32249 whole entry): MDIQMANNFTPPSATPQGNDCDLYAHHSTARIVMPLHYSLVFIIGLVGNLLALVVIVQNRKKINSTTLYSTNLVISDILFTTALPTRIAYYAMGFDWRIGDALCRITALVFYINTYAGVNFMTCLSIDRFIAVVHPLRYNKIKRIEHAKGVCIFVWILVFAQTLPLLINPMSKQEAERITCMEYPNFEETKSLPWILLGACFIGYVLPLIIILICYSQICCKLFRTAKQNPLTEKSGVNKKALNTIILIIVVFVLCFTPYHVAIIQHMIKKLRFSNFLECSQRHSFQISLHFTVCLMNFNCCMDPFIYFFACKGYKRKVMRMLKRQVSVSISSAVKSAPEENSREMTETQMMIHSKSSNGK

SMILES: CNC(C)C(=O)c1ccc2c(c1)OCO2 (centres unmarked) [Methylone, 3,4-methylenedioxy-N-methylcathinone]
- pIC50 (DAT): 5.64
- Agonist % activity (5HT2C receptor): no agonist or antagonist activity
- Persistence of effect post dose ([1]; 30 mg/kg IP): at least 11 days
- Effect on fear extinction training and testing ([1]; 30 mg/kg IP, 30 min before extinction training on Day 3): rapid, robust and long-lasting beneficial effect on fear extinction training and testing
- Fear extinction training on day 3 ([1]; 10, 20 or 30 mg/kg IP): All doses significantly improved fear extinction training on day 3
- Cmax (geometric mean) ([2]; 50 mg oral, N = 3): 151.2 ng/mL
- AUC10hr (geometric mean) ([2]; 50 mg oral): 725 ng·h/mL
- AUC24hr (geometric mean) ([2]; 50 mg oral): 988 ng·h/mL
- AUCinf (geometric mean) ([2]; 50 mg oral): 1062 ng·h/mL
- Half-life (geometric mean) ([2]; 50 mg oral): 6.2 h
- Tmax (median) ([2]; 50 mg oral): 1.5 h
- Cmax (geometric mean) ([2]; 100 mg oral, N = 6): 283.9 ng/mL
- AUC10hr (geometric mean) ([2]; 100 mg oral): 1554 ng·h/mL
- AUC24hr (geometric mean) ([2]; 100 mg oral): 2232 ng·h/mL
- AUCinf (geometric mean) ([2]; 100 mg oral): 2410 ng·h/mL
- Half-life (geometric mean) ([2]; 100 mg oral): 6.0 h
- Tmax (median) ([2]; 100 mg oral): 2.5 h
- Cmax (geometric mean) ([2]; 150 mg oral, N = 5): 340.2 ng/mL
- AUC10hr (geometric mean) ([2]; 150 mg oral): 2153 ng·h/mL
- AUC24hr (geometric mean) ([2]; 150 mg oral): 3165 ng·h/mL
- AUCinf (geometric mean) ([2]; 150 mg oral): 3509 ng·h/mL
- Half-life (geometric mean) ([2]; 150 mg oral): 6.7 h
- Cmax (geometric mean) ([2]; 200 mg oral, N = 7): 594.2 ng/mL
- AUC10hr (geometric mean) ([2]; 200 mg oral): 3261 ng·h/mL
- AUC24hr (geometric mean) ([2]; 200 mg oral): 4676 ng·h/mL
- AUCinf (geometric mean) ([2]; 200 mg oral): 5116 ng·h/mL
- Half-life (geometric mean) ([2]; 200 mg oral): 6.5 h
- Time to reach maximum concentrations (Tmax) ([2]; oral 50 mg to 200 mg): 1 to 2 h
- half-life ([2]; oral 50 mg to 200 mg): 6 to 7 h
- Affinity for the serotonin transporter, times lower compared to MDMA (serotonin transporter): 3 ×
- Adverse effects in healthy subjects ([3]; Cohort 1, 4 subjects, single session, total dose 790 or 870 mg): no adverse effects or after-effects were observed or reported
- Cases well tolerated with no safety events reported ([3]; Cohort 2, 25 of 28 cases): 89.3%
- Patients with initial improvement at the first methylone session ([3]; Cohort 2, 25 of 28 patients): ~90%
- Number of cases with CGI-I 2 ([3]; Cohort 2, N = 28): 13
- Number of cases with CGI-I 3 ([3]; Cohort 2, N = 28): 4
- Number of cases with CGI-I 4 ([3]; Cohort 2, N = 28): 0
- Number of cases with CGI-I 5 ([3]; Cohort 2, N = 28): 0
- Number of cases with CGI-I 6 ([3]; Cohort 2, N = 28): 0
- Number of cases with CGI-I 7 ([3]; Cohort 2, N = 28): 0
- Number of cases with CGI-I 1 (highest observed magnitude of improvement) ([3]; Cohort 2, N = 28 PTSD/MDD patients, oral): 11*
- Patients achieving CGI-I 1 or 2 ([3]; Cohort 2 overall): 86%
- Cases reporting a durable effect ([3]; MDD subset, 6 narratives with durability information): 5
- Patients achieving CGI-I 1 or 2 ([3]; MDD subset, 8/8 patients): 100%
- Patients achieving CGI-I 1 or 2 ([3]; PTSD subset, 16/20 patients): 80%
- Case narratives reporting a durable effect ([3]; PTSD subset, 16 narratives with durability information): 15
- % Activity (168 GPCRs [4]): 0%
- % Activity (168 GPCRs [5]): 0.5%
- % Activity (168 GPCRs [6]): 3.6%
- % Activity (168 GPCRs [7]): −1%
- % Activity (168 GPCRs [8]): −0.2%
- % Activity (168 GPCRs [9]): 1.4%
- Time spent in the center of the open field vs. vehicle (Open field test (OFT)): significantly increases the time spent in the center of the open field
- Agonist % activity (5HT2A receptor): no agonist or antagonist activity
